Laboratory results reported in patent publication EP0568946A1, “Compound TAN-1607A, its derivatives, their production, and use thereof” (TAKEDA CHEMICAL INDUSTRIES, LTD., priority 1992, dated 1993).

Tested on: mice
Assay: Acute toxicity test using mice
Format: in vivo
Conditions: 100 mg/kg administered intraperitoneally
Description: Further, no mice died in an acute toxicity test using mice in which the compound TAN-1607A (100 mg/kg) was administered intraperitoneally.

CC(=O)OC(CCCC12OC(C(=O)O)C(O)(C(=O)O)C(C(=O)O)(O1)C(OC(=O)CCCCCCCC/C=C/c1ccccc1)C2O)C(C)C/C=C/c1ccccc1 (stereo not shown) [TAN-1607A]
acute toxicity (mortality): no mice died
